Reference: paper PMC9041133 (RSC Advances, 2021)

Columns and labels:
[1] = Pharmacokinetic study in healthy volunteers after oral fixed-combination tablet, plasma measured by USA-DMSPE-HPLC-UV; format: in vivo; conditions: human; for half-life: read-out: T ½ (converted)
Protocol: First of all, some frozen human plasma samples were allowed to be thawed at room temperature (23 ± 0.5 °C) and afterwards they were placed into centrifuge tubes. Acetonitrile was applied as a deproteinizing agent to precipitate all proteins existing in plasma. In this regard, 1.9 mL of plasma was spiked with 100.0 μL of working standard solutions to get the suitable concentration level of DIC and FEB, then, to all tubes, 2.0 mL acetonitrile was added. All the biological samples were vortexed for 3 min for complete mixing and followed with centrifugation at 5000 rpm for 4 min. For evaporating the acetonitrile content of each real sample, the tube containing the spiked sample was placed under a stream of nitrogen. To adjust the pH of media, 4.0 mL buffer solution at pH 5.0 was added to real sample. Eventually, 5.0 mL of the resultant spiked sample was subjected to the extraction and measurement protocols for further evaluations.
5.0 mL of the prepared spiked human plasma was placed into a centrifuge tube and then 20.0 mg of synthesized hybrid sorbent was added to the tube. For ensuring the complete dispersion of the supermagnetic hybrid sorbent into the solution, ultrasonic irradiation was utilized for 6 min. As the sorbent is dispersed through the sample, the target drugs are adsorbed on the surface of it. Subsequently, an external magnetic field composed of neodymium (Nd), iron (Fe) and boron (B) (0.8 tesla) was applied to separate the hybrid sorbent from media and the free drug sample was removed by a pipette. In order to desorb the target drugs from the extractor, it was washed with 1.5 mL with acetonitrile in three steps (0.5 mL in each step) while ultrasonic irradiation was applied for 3 min. Nd-Fe-B-Nd magnet was used again in this step and then the solution was separated and dried under a stream of nitrogen. After collecting the remaining material, which contains DIC and FEB, was dissolved in 50.0 μL of the mobile phase of HPLC and 20.0 μL of it was injected into the separation column and further measurements were carried out.
The volunteer's blood were collected after 0 to 4 and 8, 12 and 24 h of taking the drug and the samples were transferred to the polypropylene tubes containing ethylenediaminetetraacetic acid and centrifuged to achieve the required human plasma, after that the samples were kept at −18 °C. […] The samples were analyzed by means of the current method and the average concentration of each drug versus time was drawn. In this assessment, some major pharmacokinetic features including Tmax, Cmax, AUC0–t, AUC0–∞, and T½ were calculated and the results were summarized in Table 3.

[2] = design: method as in doi:10.1016/j.microc.2019.03.022, PMID 28953473; conditions: reported values; cited from earlier work

Structure (SMILES) | Tmax [1] | half-life [1] | pKa [2]
O=C(O)Cc1ccccc1Nc1c(Cl)cccc1Cl [Diclofenac, 2-(2,6-dichloranilino)phenylacetic acid] | 2.88 ± 0.3 h | 5.1 ± 1.1 h | –
Cc1nc(-c2ccc(OCC(C)C)c(C#N)c2)sc1C(=O)O [Febuxostat, 2-(3-cyano-4-isobutoxyphenyl)-4-methyl-1,3-thiazole-5-carboxylic acid] | 3.15 ± 0.27 h | 6.3 ± 1.5 h | 3.3
